{
  "source": "patent US10077455B2",
  "about": "“3HP tolerance” (TECHNICAL UNIVERSITY OF DENMARK, priority 2013, dated 2018)",
  "key": {"[1]": {"system": "S. cerevisiae WT, SFA1-alleles and sfa1Δ strains", "method": "The role of GSH in 3HP detoxification was investigated. The WT, SFA1-allles, and sfa1Δ strains were grown in the minimal medium with or without 50 g/L 3HP and supplemented with various concentration of external GSH (0-30 mM) and tested for 3HP tolerance.\nFor testing 3HP tolerance phenotype, the pre-cultures were prepared by inoculation of a single colony in 1 mL Delft buffered (pH 3.5) media containing 10 g/L 3HP. The cultures were incubated at 30° C. with 250 rpm overnight. Five μL of the overnight cultures were used to inoculate 100 μL Delft buffered (pH 3.5) with or without 50 g/L 3HP and various concentration of GSH (0, 1, 2.5, 5, 10, and 20 mM) in 96-well flat bottom plate. The 96-well plate was incubated at 30° C. with shaking in the Synergy™ MX microplate reader (BioTek) and the absorbance was measured at 600 nm wavelength every 15 min for 42 hours. Experiments were done in triplicates."}, "K. lactis": {"system": "K. lactis", "conditions": "5 mM GSH, 50 g/L 3HP, Delft medium pH 6.0, 25° C.", "method": "(§1) The yeast strains were grown in 3 mL Delft medium (pH 6.0) at 250 rpm, 25° C., overnight. Three μL of the overnight cultures were used to inoculate 100 μL Delft medium (pH 6.0) with or without 50 g/[…] in 96-well flat bottom plate. The 96-well plate was incubated with shaking in the SynergyTM MX microplate reader (BioTek) at 25° C. and the absorbance was measured at 600 nm wavelength every 15 min for 72 hours. Experiments were done in triplicates, and the specific growth rate (h^-1) was calculated. The effect of GSH addition was performed by adding 5 mM GSH into the cultivation medium containing 50 g/[…]. The growth of each strain was determined as mentioned above."}, "S. cerevisiae": {"system": "S. cerevisiae", "conditions": "5 mM GSH, 50 g/L 3HP, Delft medium pH 6.0, 25° C.", "method": "as §1"}, "S. kluyveri": {"system": "S. kluyveri", "conditions": "5 mM GSH, 50 g/L 3HP, Delft medium pH 6.0, 25° C.", "method": "as §1"}, "K. marxianus": {"system": "K. marxianus", "assay": "Effect of GSH addition on growth of yeast strains with 50 g/L 3HP", "format": "cell-based, Kluyveromyces marxianus", "description": "(§2) The yeast strains were grown in 3 mL Delft medium (pH 6.0) at 250 rpm, 25° C., overnight. Three μL of the overnight cultures were used to inoculate 100 μL Delft medium (pH 6.0) with or without 50 g/[MUT] in 96-well flat bottom plate. The 96-well plate was incubated with shaking in the SynergyTM MX microplate reader (BioTek) at 25° C. and the absorbance was measured at 600 nm wavelength every 15 min for 72 hours. Experiments were done in triplicates, and the specific growth rate (h^-1) was calculated. The effect of GSH addition was performed by adding 5 mM GSH into the cultivation medium containing 50 g/[MUT]. The growth of each strain was determined as mentioned above."}, "Y. lipolytica": {"system": "Y. lipolytica", "assay": "Effect of GSH addition on growth of yeast strains with 50 g/L 3HP", "format": "cell-based, Yarrowia lipolytica", "description": "as §2"}, "C. jadinii": {"system": "C. jadinii", "assay": "Effect of GSH addition on growth of yeast strains with 50 g/L 3HP", "format": "cell-based, Cyberlindnera jadinii", "description": "as §2"}, "S. pombe": {"system": "S. pombe", "assay": "Effect of GSH addition on growth of yeast strains with 50 g/L 3HP", "format": "cell-based, Schizosaccharomyces pombe", "description": "as §2"}, "T. delbrueckii": {"system": "T. delbrueckii", "assay": "Effect of GSH addition on growth of yeast strains with 50 g/L 3HP", "format": "cell-based, Torulaspora delbrueckii", "description": "as §2"}, "Rhodotorula minuta": {"system": "Rhodotorula minuta", "assay": "Effect of GSH addition on growth of yeast strains with 50 g/L 3HP", "format": "cell-based", "description": "as §2"}, "[2]": {"system": "E. coli strains W3110, CROOKS, W, BL21 (DE3), MG1655", "assay": "Effect of GSH addition on growth of E. coli strains in M9 with 20 g/L 3HP", "format": "cell-based", "conditions": "for effect of GSH addition on viability: M9 minimal medium with 20 g/L 3HP, pH 7.0, 37° C.", "method": "For E. coli, the effect of GSH addition on the growth of E. coli in the presence of 20 g/L 3HP was investigated. Five platform E. coli wild-type strains e.g. W3110, CROOKS, W, BL21 (DE3) and MG1655 were selected for 3HP tolerance experiment. Single colony from each strain was inoculated into 3 mL M9 medium and incubated at 250 rpm, 37° C., overnight. Two μL of the overnight cultures were used to inoculate 150 μL M9 medium, M9 with 20 g/L 3HP, and M9 with 20 g/L 3HP and 5 mM GSH in 96-well flat bottom plate. The pH of all E. coli tested media was at pH 7.0.\nThe composition of M9 medium was as follows: 2.0 g/L glucose, 6.8 g/L Na HPO4, 3.0 g/L KH2PO4, 0.5 g/L NaCl, 1.0 g/L NH4Cl, 0.24 g/L MgSO4, 0.011 g/L CaCl2, 0.5 mL/L trace elements solution, and 1.0 mL/L Wolfe's Vitamin solution. The trace elements solution included 1.0 g/L FeCl3.6H2O, 0.18 g/L ZnSo4.7H2O, 0.12 g/L CuCl2.2H2O, 0.12 g/L MnSO4.H2O, and 0.18 g/L CoCl2.6H2O. The Wolfe's vitamin solution included 10 mg/L pyridoxine hydrochloride, 5.0 mg/L thiamine HCl, 5.0 mg/L riboflavin, 5.0 mg/L nicotinic acid, 5.0 mg/L calcium-(+) phantothenate, 5.0 mg/L para-amino benzoic acid, 5.0 mg/L thiotic acid, 2.0 mg/L d-biotin, 2.0 mg/L folic acid, and 0.1 mg/L vitamin B12. The trace elements and vitamin solutions were sterile-filtered and the solution was stored at 4° C. The M9 salt solution was prepared as a 10× concentrate solution and sterilized by autoclaving. 20% Glucose solution, 1M MgSO4, and 1M CaCl2 stock solutions were autoclaved separately."}, "[3]": {"system": "S. cerevisiae CEN.PK 113-7D strain (WT)", "assay": "Toxicity of 3HP on growth of S. cerevisiae in Delft minimal medium", "format": "cell-based, Saccharomyces cerevisiae", "conditions": "Delft buffered medium pH 3.5, 30° C., 42 hours", "method": "The toxicity of 3HP on growth of S. cerevisiae CEN.PK 113-7D strain (WT) was determined by evaluating the ability of the WT strain to grow on a chemically defined minimal medium (Delft) containing varying concentrations of 3HP (0-100 g/L). The composition of Delft medium was as follows: 20.0 g/L glucose, 5.0 g/L (NH4)2SO4, 3.0 g/L KH2PO4, 0.5 g/L MgSO4.7H2O, 1.0 mL/L trace metal solution, 0.05 g/L antifoam A (10794, Sigma-Aldrich), and 1.0 mL/L vitamin solution. The trace element solution included 15 g/L EDTA, 0.45 g/L CaCl2.2H2O, 0.45 g/L ZnSO4.7H2O, 0.3 g/L FeSO4.7H2O, 100 mg/L […], 1 g/L MnCl2.2H2O, 0.3 g/L CoCl2.6H2O, 0.3 g/L CuSO4.5H2O, 0.4 g/L NaMoO4.2H2O. The pH of the trace metal solution was adjusted to 4.0 with 2 M NaOH and heat sterilized. […]\nA single colony from YPD plate (10 g/L yeast extract, 20 g/L peptone, 20 g/L glucose and 20 g/L agar) was inoculated in a shake flask with 20 mL YPD broth and grown at 30° C., with shaking at 200 rpm, overnight. The absorbance (OD600) of the overnight culture was measured at 600 nm wave length using NanoPhotometer™ UV/Vis (Implen) and the culture was diluted with YPD medium to obtain inoculum with the OD600 around 0.8. […] Experiments were done in duplicates, and the specific growth rate (h^−1) was calculated at various concentrations of 3HP."}, "[4]": {"system": "S. cerevisiae strains ST609, ST610, ST611", "assay": "3HP tolerance of SFA1 allele replacement strains", "format": "cell-based, Saccharomyces cerevisiae", "conditions": "Delft buffered pH 3.5", "method": "For testing 3HP tolerance phenotype, two single colonies from each strain: ST609 (SFA1-wt), ST610 (SFA1^G827C) and ST611 (SFA1^G849A) were investigated for the ability to grow on media containing 3HP. […] The plate was incubated at 30° C. with 250 rpm agitation at 5 cm orbit cast overnight. […] Experiments were done in duplicates."}, "haploid wild-type cells": {"system": "haploid wild-type cells", "conditions": "cited from earlier work"}, "[5]": {"conditions": "5 mM GSH, 50 g/L 3HP, Delft medium pH 6.0"}},
  "data": [
    {"smiles": "N[C@@H](CCC(=O)N[C@@H](CS)C(=O)NCC(=O)O)C(=O)O", "note": "[GSH, glutathione]", "values": [
      {"measurement": "GSH concentration that restored growth in the presence of 50 g/L 3HP", "setting": "[1]; WT S. cerevisiae, 50 g/L 3HP, Delft buffered pH 3.5", "value": "≥ 2.5", "unit": "mM"},
      {"measurement": "effect of GSH on growth", "setting": "[1]; all strains, minimal medium without 50 g/L 3HP", "value": "no significant effect"},
      {"measurement": "effect of GSH addition on growth", "setting": "[1]; sfa1Δ strain, 50 g/L 3HP", "value": "could not be restored"},
      {"measurement": "effect of GSH addition on growth rate", "setting": "[1]; strain carrying the SFA1 alleles, 50 g/L 3HP", "value": "improved the growth rate"},
      {"measurement": "effect of GSH addition on viability", "setting": "K. lactis", "value": "restored the viability"},
      {"measurement": "effect of GSH addition on viability", "setting": "S. cerevisiae", "value": "restored the viability"},
      {"measurement": "effect of GSH addition on viability", "setting": "S. kluyveri", "value": "restored the viability"},
      {"measurement": "effect of GSH addition on specific growth rate", "setting": "K. marxianus; [5]", "value": "improved"},
      {"measurement": "effect of GSH addition on specific growth rate", "setting": "Y. lipolytica; [5]", "value": "improved"},
      {"measurement": "effect of GSH addition on specific growth rate", "setting": "C. jadinii; [5]", "value": "improved"},
      {"measurement": "effect of GSH addition on specific growth rate", "setting": "S. pombe; [5]", "value": "improved"},
      {"measurement": "effect of GSH addition on specific growth rate", "setting": "T. delbrueckii; [5]", "value": "improved"},
      {"measurement": "effect of GSH addition on specific growth rate", "setting": "Rhodotorula minuta; [5]", "value": "improved"},
      {"measurement": "effect of GSH addition on viability", "setting": "[2]; strain BL21, 5 mM GSH", "value": "restored the viability"},
      {"measurement": "effect of GSH addition on viability", "setting": "[2]; strain CROOKS, 5 mM GSH", "value": "restored the viability"},
      {"measurement": "effect of GSH addition on specific growth rate", "setting": "[2]; strain MG1655, 5 mM GSH, medium containing 20 g/L 3HP", "value": "improved"},
      {"measurement": "effect of GSH addition on viability", "setting": "[2]; strain W3110, 5 mM GSH", "value": "restored the viability"},
      {"measurement": "effect of GSH addition on viability", "setting": "[2]; strain W, 5 mM GSH", "value": "restored the viability"}
    ]},
    {"smiles": "O=C(O)CCO", "note": "[3HP, 3-hydroxypropionic acid]", "values": [
      {"measurement": "concentration of 3-HP at which the wild type yeast is unable to grow at all", "setting": "[3]", "value": 75, "unit": "g/L"},
      {"measurement": "concentration of 3-HP producing a substantial level of inhibition of growth", "setting": "[3]", "value": "above 10 g/L"},
      {"measurement": "3HP concentration in minimum media at which the strain could not grow", "setting": "[4]; ST609 (SFA1-wt allele without over expression)", "value": "above 40 g/L"},
      {"measurement": "3HP concentration in minimum media at which the strain could grow", "setting": "[4]; ST610 (SFA1^G827C)", "value": "above 40 g/L"},
      {"measurement": "3HP concentration in minimum media at which the strain could grow", "setting": "[4]; ST611 (SFA1^G849A)", "value": "above 40 g/L"},
      {"measurement": "3HP concentration tolerated (with decreased specific growth rate)", "setting": "K. marxianus; Delft medium pH 6.0, 25° C.", "value": "more than 50 g/L"},
      {"measurement": "3HP concentration tolerated (with decreased specific growth rate)", "setting": "Y. lipolytica; Delft medium pH 6.0, 25° C.", "value": "more than 50 g/L"},
      {"measurement": "3HP concentration tolerated (with decreased specific growth rate)", "setting": "C. jadinii; Delft medium pH 6.0, 25° C.", "value": "more than 50 g/L"},
      {"measurement": "3HP concentration tolerated (with decreased specific growth rate)", "setting": "S. pombe; Delft medium pH 6.0, 25° C.", "value": "more than 50 g/L"},
      {"measurement": "3HP concentration tolerated (with decreased specific growth rate)", "setting": "T. delbrueckii; Delft medium pH 6.0, 25° C.", "value": "more than 50 g/L"},
      {"measurement": "3HP concentration tolerated (with decreased specific growth rate)", "setting": "Rhodotorula minuta; Delft medium pH 6.0, 25° C.", "value": "more than 50 g/L"},
      {"measurement": "decrease in the specific growth rate compared to the cells grown in M9 medium", "setting": "[2]; strain MG1655, M9 medium containing 20 g/L 3HP", "value": 2.2, "unit": "fold"}
    ]},
    {"smiles": "C=O", "note": "[formaldehyde]", "values": [
      {"measurement": "concentration that is cytostatic or cytotoxic", "setting": "haploid wild-type cells", "value": "≥ 1000", "unit": "µM"}
    ]}
  ]
}
